Among the data in patent US20210017200A1, “Hydrocarbyl Tin Complex with Antitumor Activity and Preparation Method Thereof” (priority 2020, published 2021) are IC50 values, retold here.

pIC50: −log10 of the molar value.

By pIC50 is commonly meant the IC50 on a negative log10 scale, so that one unit is a factor of ten.

What all share (type): cell-based
The test system of test [1] is A549 (human lung cancer cells). To be noted: MTT, 72 hours. How it is done: (§1) MCF-7, HT-29, A549 and HepG2 cells are got from American Tissue Culture Collection, which are cultured with the culture medium containing 10% bovine fetal serum in a CO2-containing incubator at 37° C. The MTT method is used to detect cell proliferation and growth inhibition. The number of experimental cells is adjusted to obtain the absorbance at 570 nm, 6 concentrations are set for the compound test solution (0.1 nmol/L˜10 μmol/L). The cells are treated for 72 hours. At least 3 parallel experiments and 3 repeated experiments are conducted for each concentration. The IC50 value is determined by statistical analysis.
(§2) Taking cisplatin as the contrast, the in-vitro growth inhibitory activity of Compound 1 and Compound 2 on tumor cells are tested, including MCF7 (human breast cancer cells), HT-29 (human colon cancer cells), A549 (human lung cancer cells) and HepG2 (liver cancer cells).

The test system of test [2] is MCF7 (human breast cancer cells). The following applies: MTT, 72 hours. How it is done:
as §1, §2

Test [3] deals with HepG2 (liver cancer cells). To be noted: MTT, 72 hours. Here is the method: as §1, §2
Test [4] relates to HT-29 (human colon cancer cells). To be noted: HT-29 cells, MTT, 72 hours. Here is the method:
as §1, §2

On to “Tri-n-butyltin (IV) (4-methoxyphenyl) Acetylenyl Phosphonic Acid Derivatives [Compound 1]”, for which the negative logarithm of the IC50 (pIC50) in test [1] is 6.61; in test [2] it was 6.07; in test [3], 6.48; in test [4], 7.19.
